Key:
[1] = molecular target: Protein kinase C alpha type (Homo sapiens) (UniProt P17252); test: Inhibition of human recombinant PKCalpha at 10 uM by radiometric assay
HCT-116 [2] = test: Induction of apoptosis in human HCT-116 cells assessed as necrotic cells at 20 nM after 24 hrs by annexinV and 7-ADD staining based flow cytometry (reference value: 0.9%); format: functional
HCT-116 [3] = test: Induction of apoptosis in human HCT-116 cells assessed as necrotic cells at 40 nM after 24 hrs by annexinV and 7-ADD staining based flow cytometry (reference value: 0.9%); format: functional
HCT-116 [4] = test: Antitumor activity against human HCT-116 cells xenografted in nude mouse assessed as inhibition of tumor growth at 12.5 mg/kg, po for 21 days; format: functional; details: HCT-116, po, 504 h, time 21 day, read-out: TGI
HCT-116 [5] = test: Induction of apoptosis in human HCT-116 cells assessed as early apoptotic cells at 40 nM after 24 hrs by annexinV and 7-ADD staining based flow cytometry (reference value: 0.9%); format: functional
HCT-116 [6] = test: Induction of cell cycle arrest in human HCT-116 cells assessed as accumulation of cells at G1 phase at 10 nM after 24 hrs by flow cytometry (reference value: 40.5%); format: functional
HT-29 = test: Antiproliferative activity against human HT-29 cells assessed as cell viability after 72 hrs by MTT assay; format: functional
[7] = Cytotoxicity against HUVEC assessed as cell viability after 72 hrs by MTT assay; format: cell-based; details: human, HUVEC cells
SW-620 = test: Antiproliferative activity against human SW-620 cells assessed as cell viability after 72 hrs by MTT assay; format: functional
HCT-116 [8] = test: Induction of apoptosis in human HCT-116 cells assessed as late apoptotic cells at 10 nM after 24 hrs by annexinV and 7-ADD staining based flow cytometry (reference value: 1.5%); format: functional
A549 = test: Antiproliferative activity against human A549 cells assessed as cell viability after 72 hrs by MTT assay; format: functional
HCT-116 [9] = test: Induction of apoptosis in human HCT-116 cells assessed as early apoptotic cells at 20 nM after 24 hrs by annexinV and 7-ADD staining based flow cytometry (reference value: 0.9%); format: functional
[10] = molecular target: Tubulin beta (Homo sapiens) (UniProt P68371+Q9H4B7+Q13509+P04350+Q3ZCM7+P07437+Q13885+Q9BVA1+Q9BUF5+A6NNZ2); test: Inhibition of N,N'-Ethylenebis(iodoacetamide) binding to beta-tubulin in human HCT-116 cells assessed as reduction in EBI/beta-tubulin adduct formation preincubated for 2 hrs followed by EBI addition and measured after 1.5 hrs by Western blot analysis; format: cell-based; details: dose 0.2-25 µM, time 3.5 hrs
HCT-116 [11] = test: Induction of cell cycle arrest in human HCT-116 cells assessed as accumulation of cells at G2/M phase at 20 nM after 24 hrs by flow cytometry (reference value: 16.35%); format: functional
HCT-116 [12] = test: Induction of cell cycle arrest in human HCT-116 cells assessed as accumulation of cells at S phase at 10 nM after 24 hrs by flow cytometry (reference value: 43.12%); format: functional
HCT-116 [13] = test: Antiproliferative activity against human HCT-116 cells assessed as cell viability after 72 hrs by MTT assay; format: functional
HCT-116 [14] = test: Induction of cell cycle arrest in human HCT-116 cells assessed as accumulation of cells at S phase at 20 nM after 24 hrs by flow cytometry (reference value: 43.12%); format: functional
HCT-116 [15] = test: Induction of cell cycle arrest in human HCT-116 cells assessed as accumulation of cells at G2/M phase at 10 nM after 24 hrs by flow cytometry (reference value: 16.35%); format: functional
[16] = Toxicity in nude mouse xenografted with human HCT-116 cells assessed as change in body weight at 12.5 mg/kg, po for 21 days (reference value: 2.2%); format: organism-based; details: in vivo, 504 h, time 21 day
HCT-116 [17] = test: Induction of apoptosis in human HCT-116 cells assessed as late apoptotic cells at 20 nM after 24 hrs by annexinV and 7-ADD staining based flow cytometry (reference value: 1.5%); format: functional
HCT-116 [18] = test: Induction of apoptosis in human HCT-116 cells assessed as necrotic cells at 10 nM after 24 hrs by annexinV and 7-ADD staining based flow cytometry (reference value: 0.9%); format: functional
Tubulin (Homo sapiens) [19] = molecular target: T1, Tubulin (Homo sapiens) (UniProt P68371+Q9H4B7+P0DPH7+P68366+Q13509+Q71U36+P04350+Q3ZCM7+P07437+P68363+Q9BQE3+Q6PEY2+Q13885+Q9BVA1+Q9BUF5); test: Inhibition of tubulin polymerization in human HCT-116 cells assessed as microtubule network polymerization after 24 hrs by immunofluorescence analysis; format: cell-based; details: dose 20-40 nM
[20] = molecular target: Proto-oncogene tyrosine-protein kinase Src (Homo sapiens) (UniProt P12931); test: Inhibition of human recombinant c-SRC (1-530 aa) at 10 uM by radiometric assay
Proto-oncogene tyrosine-protein kinase Src (Homo sapiens), sequence (P12931 2-536 limits assumed): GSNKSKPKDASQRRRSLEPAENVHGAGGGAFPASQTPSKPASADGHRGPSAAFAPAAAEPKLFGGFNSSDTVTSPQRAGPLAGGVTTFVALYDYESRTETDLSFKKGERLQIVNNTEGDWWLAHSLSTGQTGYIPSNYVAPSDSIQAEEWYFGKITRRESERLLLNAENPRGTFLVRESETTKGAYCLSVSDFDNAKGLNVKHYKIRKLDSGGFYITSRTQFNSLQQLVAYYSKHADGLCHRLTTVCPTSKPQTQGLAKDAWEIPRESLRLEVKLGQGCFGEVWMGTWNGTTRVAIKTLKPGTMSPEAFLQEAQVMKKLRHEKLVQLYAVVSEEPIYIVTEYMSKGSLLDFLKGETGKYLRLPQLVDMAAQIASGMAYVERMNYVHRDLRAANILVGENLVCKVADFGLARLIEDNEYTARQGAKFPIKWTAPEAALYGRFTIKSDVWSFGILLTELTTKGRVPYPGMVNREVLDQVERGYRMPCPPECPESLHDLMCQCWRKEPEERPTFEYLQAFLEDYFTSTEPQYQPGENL

HepG2 = test: Antiproliferative activity against human HepG2 cells assessed as cell viability after 72 hrs by MTT assay; format: functional
HCT-116 [21] = test: Induction of apoptosis in human HCT-116 cells assessed as late apoptotic cells at 40 nM after 24 hrs by annexinV and 7-ADD staining based flow cytometry (reference value: 1.5%); format: functional
HCT-116 [22] = test: Induction of apoptosis in human HCT-116 cells assessed as viable cells at 20 nM after 24 hrs by annexinV and 7-ADD staining based flow cytometry (reference value: 96.7%); format: functional; details: read-out: Activity
Tubulin (Homo sapiens) [23] = molecular target: T1, Tubulin (Homo sapiens); test: Inhibition of tubulin polymerization in human HCT-116 cells assessed as complete microtubule depolymerization at 40 nM after 24 hrs by immunofluorescence analysis; format: cell-based
HCT-116 [24] = test: Antitumor activity against human HCT-116 cells xenografted in nude mouse assessed as inhibition of tumor growth at 25 mg/kg, po for 21 days; format: functional; details: HCT-116, po, 504 h, time 21 day, read-out: TGI
HCT-116 [25] = test: Induction of apoptosis in human HCT-116 cells assessed as early apoptotic cells at 10 nM after 24 hrs by annexinV and 7-ADD staining based flow cytometry (reference value: 0.9%); format: functional
HCT-116 [26] = test: Induction of cell cycle arrest in human HCT-116 cells assessed as accumulation of cells at G1 phase at 20 nM after 24 hrs by flow cytometry (reference value: 40.5%); format: functional
HCT-116 [27] = test: Induction of apoptosis in human HCT-116 cells assessed as viable cells at 40 nM after 24 hrs by annexinV and 7-ADD staining based flow cytometry (reference value: 96.7%); format: functional; details: read-out: Activity
1-87 tumor cell line = test: (§1) Inhibition of porcine brain tubulin polymerization by fluorescence based assay; details: Sus scrofa domesticus
[28] = as §1; format: cell-based, Sus scrofa domesticus, 1-87 tumor cell line
HCT-116 [29] = test: Induction of apoptosis in human HCT-116 cells assessed as viable cells at 10 nM after 24 hrs by annexinV and 7-ADD staining based flow cytometry (reference value: 96.7%); format: functional; details: read-out: Activity
[30] = molecular target: Vascular endothelial growth factor receptor 2 (Homo sapiens) (UniProt P35968); test: Inhibition of human KDR expressed in mammalian expression system at 10 uM by radiometric assay
Vascular endothelial growth factor receptor 2 (Homo sapiens), sequence (P35968 whole entry): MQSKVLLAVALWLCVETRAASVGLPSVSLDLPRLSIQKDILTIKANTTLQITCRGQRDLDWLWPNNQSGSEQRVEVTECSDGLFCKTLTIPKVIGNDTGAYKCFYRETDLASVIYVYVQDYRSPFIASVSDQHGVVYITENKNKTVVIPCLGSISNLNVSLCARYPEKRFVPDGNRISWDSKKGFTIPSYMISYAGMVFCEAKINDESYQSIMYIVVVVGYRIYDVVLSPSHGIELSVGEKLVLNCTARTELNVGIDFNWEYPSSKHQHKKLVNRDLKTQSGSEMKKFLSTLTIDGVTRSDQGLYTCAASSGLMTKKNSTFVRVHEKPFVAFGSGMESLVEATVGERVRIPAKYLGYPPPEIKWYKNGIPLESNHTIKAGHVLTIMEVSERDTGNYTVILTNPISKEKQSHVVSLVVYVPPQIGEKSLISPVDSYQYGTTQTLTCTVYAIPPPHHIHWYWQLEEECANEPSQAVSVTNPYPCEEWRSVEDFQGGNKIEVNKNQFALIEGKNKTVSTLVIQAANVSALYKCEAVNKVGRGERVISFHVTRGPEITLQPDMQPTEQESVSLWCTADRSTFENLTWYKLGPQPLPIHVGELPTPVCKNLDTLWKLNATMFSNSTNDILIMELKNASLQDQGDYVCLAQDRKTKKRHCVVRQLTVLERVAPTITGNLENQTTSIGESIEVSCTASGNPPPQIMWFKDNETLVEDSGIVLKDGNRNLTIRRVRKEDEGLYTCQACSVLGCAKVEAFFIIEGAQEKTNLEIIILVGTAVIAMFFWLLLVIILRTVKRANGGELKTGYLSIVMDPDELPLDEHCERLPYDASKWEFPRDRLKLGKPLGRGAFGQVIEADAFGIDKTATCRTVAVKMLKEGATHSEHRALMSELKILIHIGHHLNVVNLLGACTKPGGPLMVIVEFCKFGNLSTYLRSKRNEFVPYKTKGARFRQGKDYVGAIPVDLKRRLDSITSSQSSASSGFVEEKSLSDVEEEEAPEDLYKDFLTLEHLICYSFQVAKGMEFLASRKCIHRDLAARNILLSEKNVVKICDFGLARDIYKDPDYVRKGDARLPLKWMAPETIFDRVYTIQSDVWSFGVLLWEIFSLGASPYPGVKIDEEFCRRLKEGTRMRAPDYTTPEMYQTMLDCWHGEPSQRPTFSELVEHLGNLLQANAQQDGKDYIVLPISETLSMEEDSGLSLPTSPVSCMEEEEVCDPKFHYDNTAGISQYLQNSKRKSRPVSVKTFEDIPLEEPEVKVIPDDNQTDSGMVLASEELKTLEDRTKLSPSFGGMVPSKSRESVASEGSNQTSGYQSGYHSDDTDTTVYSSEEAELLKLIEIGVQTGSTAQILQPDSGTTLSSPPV

Tubulin (Homo sapiens) [31] = molecular target: T1, Tubulin (Homo sapiens); test: Inhibition of tubulin polymerization in human HCT-116 cells assessed as microtubule spindle formation after 24 hrs by immunofluorescence analysis; format: cell-based; details: dose 20-40 nM
[32] = Toxicity in nude mouse xenografted with human HCT-116 cells assessed as change in body weight at 25 mg/kg, po for 21 days (reference value: 2.2%); format: organism-based; details: in vivo, 504 h, time 21 day

Row | SMILES | Activity (HCT-116 [2]) [%] | Activity (HCT-116 [3]) [%] | inhibition in vivo at 12.5 mg/kg (HCT-116 [4]) [%] | Activity (HCT-116 [5]) [%] | Activity (HCT-116 [6]) [%] | GI50 (HT-29) [µM] | GI50 at 72 h [7] [µM] | GI50 (SW-620) [µM] | Activity (HCT-116 [8]) [%] | GI50 (A549) [µM] | Activity (HCT-116 [9]) [%] | inhibition [10] | Activity (HCT-116 [11]) [%] | Activity (HCT-116 [12]) [%] | GI50 (HCT-116 [13]) [µM] | Activity (HCT-116 [14]) [%] | Activity (HCT-116 [15]) [%] | Activity [16] [%] | Activity (HCT-116 [17]) [%] | Activity (HCT-116 [18]) [%] | also measured
1 | COc1ccc2c(Nc3cc(OC)c(OC)c(OC)c3)n[nH]c2c1 | 2.6 | 3.5 | 34.3 | 12.8 | 36.86 | 0.096 | > 25 | 0.024 | 10.1 | 0.065 | 5.2 | Dose-dependent effect | 87.12 | 41.56 | 0.041 | 6.04 | 21.57 | 2.8 | 13.1 | 3.1 | inhibition [1]: 24%; inhibition (Tubulin (Homo sapiens) [19]): Dose-dependent effect; inhibition [20]: 35%; GI50 (HepG2): 0.053 µM; Activity (HCT-116 [21]): 17.6%; viability at 0.02 µM (HCT-116 [22]): 79.2%; inhibition (Tubulin (Homo sapiens) [23]): 100%; inhibition in vivo at 25 mg/kg (HCT-116 [24]): 59.9%; Activity (HCT-116 [25]): 5.1%; Activity (HCT-116 [26]): 6.85%; viability at 0.04 µM (HCT-116 [27]): 66.2%; inhibition (1-87 tumor cell line): Dose-dependent effect; IC50 [28]: 4.77 µM; viability at 0.01 µM (HCT-116 [29]): 81.8%; inhibition [30]: 66%; inhibition (Tubulin (Homo sapiens) [31]): Dose-dependent effect; Activity [32]: 1.1%
2 | COc1cc(Nc2n[nH]c3cc(C)ccc23)cc(OC)c1OC | 2.1 | 1.5 | 27.4 | 15.4 | 34.54 | 0.031 | > 25 | 0.008 | 12.7 | 0.033 | 8.9 | Dose-dependent effect | 81.07 | 36.46 | 0.015 | 4.68 | 29 | 2.7 | 13.7 | 2.7 | inhibition (Tubulin (Homo sapiens) [19]): Dose-dependent effect; GI50 (HepG2): 0.027 µM; Activity (HCT-116 [21]): 20.9%; viability at 0.02 µM (HCT-116 [22]): 75.4%; inhibition (Tubulin (Homo sapiens) [23]): 100%; inhibition in vivo at 25 mg/kg (HCT-116 [24]): 45.3%; Activity (HCT-116 [25]): 4.7%; Activity (HCT-116 [26]): 14.25%; viability at 0.04 µM (HCT-116 [27]): 62.2%; inhibition (1-87 tumor cell line): Dose-dependent effect; IC50 [28]: 3.39 µM; viability at 0.01 µM (HCT-116 [29]): 79.9%; inhibition (Tubulin (Homo sapiens) [31]): Dose-dependent effect; Activity [32]: 6.5%

From ChEMBL document CHEMBL4732043, “The discovery of novel indazole derivatives as tubulin colchicine site binding agents that displayed potent antitumor activity both in vitro and in vivo” (Eur J Med Chem, 2020)
